For assay [1], the system named is wild oats. Put plainly: Preemergent control of plant species. The class given is in vivo. The settings on record: Avena fatua, pre-emergence, 336 h; 0.25 lb/acre; read-out: percent preemergent control. The procedure:
The seeds of various species of plants were planted in beds of good agricultural soil in a greenhouse. A number of compositions of the present invention, generally in the nature of an aqueous emulsion, were applied at rates listed in the table so as to deposit a predetermined amount of active ingredients uniformly throughout the surface of the bed. Another seed bed was treated only with water to serve as a control. After treatment the seed beds were maintained for two weeks under greenhouse conditions conducive for good plant growth and watered as necessary. Control refers to the reduction in growth compared to the observed results of the same untreated species.

The test system of assay [2] is cotton. Briefly: Preemergent control of plant species. It counts as in vivo, Gossypium spp. The settings on record: Gossypium hirsutum, pre-emergence, 336 h; 0.25 lb/acre; read-out: percent preemergent control. An outline of the steps:
(§1)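 Preemergent application of aqueous emulsions at rates given in the table, uniformly over seeded greenhouse soil. Untreated (water) beds as comparison; rating after 2 weeks as reduction in growth.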

The subject of assay [3] is jimsonweed. Briefly: Preemergent control of plant species. It counts as in vivo, Datura stramonium. The settings on record: Datura stramonium, pre-emergence, 336 h; 0.25 lb/acre; read-out: percent preemergent control. An outline of the steps:
as §1

In assay [4] the test system is yellow nutsedge. Put plainly: Preemergent control of plant species. The class given is in vivo, Cyperus esculentus. The settings on record: Cyperus, pre-emergence, 336 h; 0.25 lb/acre; read-out: percent preemergent control. The method, boiled down:
as §1

Assay [5] concerns rice. Briefly: Preemergent control of plant species. It counts as in vivo, Oryza sativa. The following applies: Oryza sativa, pre-emergence, 336 h; 0.25 lb/acre; read-out: percent preemergent control. The method, boiled down: as §1
Assay [6] relates to yellow foxtail. Put plainly: Preemergent control of plant species. It counts as in vivo, Setaria lutescens. The settings on record: Setaria, pre-emergence, 336 h; 0.25 lb/acre; read-out: percent preemergent control. The method, boiled down:
as §1

The subject of assay [7] is wheat. Put plainly: Preemergent control of plant species. The class given is in vivo, Triticum aestivum. The following applies: Triticum aestivum, pre-emergence, 336 h; 0.25 lb/acre; read-out: percent preemergent control. An outline of the steps: as §1
For assay [8], the system named is sugar beet. Briefly: Preemergent control of plant species. It counts as in vivo, Beta saccharifera. The following applies: Beta vulgaris, pre-emergence, 336 h; 0.25 lb/acre; read-out: percent preemergent control. An outline of the steps:
as §1

In assay [9] the test system is annual morning glory. Briefly: Preemergent control of plant species. It counts as in vivo, Ipomoea spp. The settings on record: Ipomoea, pre-emergence, 336 h; 0.25 lb/acre; read-out: percent preemergent control. The method, boiled down: as §1
For assay [10], the system named is johnson grass. Put plainly: Preemergent control of plant species. It counts as in vivo, Sorghum halepense. The settings on record: Sorghum halepense, pre-emergence, 336 h; 0.25 lb/acre; read-out: percent preemergent control. The method, boiled down:
as §1

For assay [11], the system named is corn. Briefly: Preemergent control of plant species. It counts as in vivo, Zea mays. The following applies: Zea mays, pre-emergence, 336 h; 0.25 lb/acre; read-out: percent preemergent control. An outline of the steps: as §1
The subject of assay [12] is velvetleaf. Put plainly: Preemergent control of plant species. The class given is in vivo, Abutilon theophrasti. The settings on record: Abutilon theophrasti, pre-emergence, 336 h; 0.25 lb/acre; read-out: percent preemergent control. The method, boiled down:
as §1

Assay [13] relates to barnyardgrass. Briefly: Preemergent control of plant species. The class given is in vivo, Echinochloa crusgalli. The settings on record: Echinochloa crus-galli, pre-emergence, 336 h; 0.25 lb/acre; read-out: percent preemergent control. The method, boiled down: as §1
Assay [14] has as its system soybean. Briefly: Preemergent control of plant species. The class given is in vivo, Glycine max. The following applies: Glycine max, pre-emergence, 336 h; 0.25 lb/acre; read-out: percent preemergent control. The method, boiled down:
as §1

Assay [15] deals with nitrification of ammonium nitrogen. Put plainly: Suppression of nitrification of ammonium nitrogen in soil. The following applies: 27° C. The method, boiled down: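 Soil (20 g) moistened to its 1/3 bar tension value, mixed with test chemical and incubated sealed for two weeks at 27° C. Nitrate extracted with ammonium sulfate solution and measured by nitrate-specific ion electrode; value given as % NH4-N remaining.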

Assay [16] concerns rape. Briefly: Preemergent control of plant species. The settings on record: Brassica napus, pre-emergence, 336 h; 0.25 lb/acre; read-out: percent preemergent control. The class given is in vivo, Brassica napus. An outline of the steps:
as §1

Assay [17] concerns sorghum. Put plainly: Preemergent control of plant species. It counts as in vivo, Sorghum vulgare. The settings on record: Sorghum, pre-emergence, 336 h; 0.25 lb/acre; read-out: percent preemergent control. An outline of the steps:
as §1

SMILES strings stand for the structures.

`Cc1cnc2nc(S(=O)(=O)Nc3c(Cl)cccc3Cl)nn2c1` [Compound 192]: the pest or weed control at 280.212 g/ha in assay [1] worked out at 0%; in assay [3] it was 100%; in assay [4] it was 90%; in assay [6] it was 70%; in assay [9] it was 97%; in assay [10], 0%. In addition, the figures for the pest or weed control at 280.212 g/ha in assay [12] and in [13] were 100% and 0%, respectively. The plant injury at 280.212 g/ha in assay [2] stood at 95%; in assay [5], 0%; in [7], 0%; in [8] it was 100%; in assay [11], 10%; in [14], 90%. In assay [16], the plant injury at 280.212 g/ha is 100%. In addition, the “% NH4-N Remaining After 2 Weeks Incubation” value in assay [15] (0.06 ppm) was 21%; in assay [15] (0.25 ppm), 48%; in assay [15] (1 ppm), 74%; in assay [15] (4 ppm), 86%.
As for `Cc1cn2nc(S(=O)(=O)Nc3c(Cl)cccc3Cl)nc2nc1C` [Compound 205], the pest or weed control at 280.212 g/ha turned out to be 50% in assay [1]; 100% in assay [3]; 70% in [4]; 0% in assay [6]; 75% in [9]; 0% in assay [10]. The pest or weed control at 280.212 g/ha was found to be 100% in assay [12] and 50% in assay [13]. Moreover, the plant injury at 280.212 g/ha is 100% in assay [2]; 50% in assay [5]; 0% in [7]; 100% in [8]; 95% in assay [11]; 90% in [14]. Further, the plant injury at 280.212 g/ha in assay [16] was found to be 100%. Further, the “% NH4-N Remaining After 2 Weeks Incubation” value in assay [15] (0.06 ppm) is on record as 32%; in assay [15] (0.25 ppm) it was 38%; in assay [15] (1 ppm), 76%; in [15] (4 ppm), 81%.
Consider `CC(=O)N(c1c(Cl)cccc1Cl)S(=O)(=O)c1nc2nc(C)ccn2n1` [Compound 268], for which the pest or weed control at 280.212 g/ha amounted to 30% in [1]; 100% in assay [3]; 100% in assay [4]; 100% in [6]; 90% in assay [9]; 80% in assay [10]. The pest or weed control at 280.212 g/ha in [12] was 100%. Besides, the plant injury at 280.212 g/ha was 100% in assay [2]; 100% in [5]; 100% in assay [8]; 100% in [17]; 80% in assay [11]; 0% in assay [14]. For the same compound, the plant injury at 280.212 g/ha in assay [16] was found to be 100%. The “% NH4-N Remaining After 2 Weeks Incubation” value in assay [15] (0.06 ppm) turned out to be 53%; in [15] (0.25 ppm), 71%; in [15] (1 ppm), 80%; in assay [15] (4 ppm) it was 92%.

The record behind these values is patent US4740233A, “Substituted 1,2,4-triazolo[1,5-a]-pyrimidine-2-sulfonamides and compositions and methods of controlling undesired vegetation and suppressing the nitrification of ammonium nitrogen in soil” (The Dow Chemical Company, priority 1986, dated 1988).
